Results as given in patent publication US20150315188A1, “COMPOUNDS AND METHODS FOR TREATMENT OF HYPERTENSION” (MEDIVATION TECHNOLOGIES, INC., priority 2012, published 2015).

How the values were obtained:
Set-up in all cases: purchased Milipore (Millipore)
[1] = molecular target: T1, Human adrenergic α2B receptor (Homo sapiens, UniProt P18089); assay: Radioligand binding, adrenergic α2B (Protocol Group B); details: Protocol Group B; for inhibition at 0.01 µM / Percentage inhibition of ligand binding, Adrenergic α2B (10 nM): 10 nM compound; for inhibition at 0.01 µM: read-out: Percentage inhibition of ligand binding, Adrenergic α2B (10 nM); for inhibition at 0.03 µM / Percentage inhibition of ligand binding, Adrenergic α2B (30 nM): 30 nM compound; for inhibition at 0.03 µM: read-out: Percentage inhibition of ligand binding, Adrenergic α2B (30 nM); for inhibition at 0.1 µM / Percentage inhibition of ligand binding, Adrenergic α2B (0.1 μM): 0.1 μM compound; for inhibition at 0.1 µM: read-out: Percentage inhibition of ligand binding, Adrenergic α2B (0.1 μM); for Percentage inhibition of ligand binding, Adrenergic α2B (10 nM): 0.01 µM; for Percentage inhibition of ligand binding, Adrenergic α2B (30 nM): 0.03 µM
T1 sequence (P18089 1-450): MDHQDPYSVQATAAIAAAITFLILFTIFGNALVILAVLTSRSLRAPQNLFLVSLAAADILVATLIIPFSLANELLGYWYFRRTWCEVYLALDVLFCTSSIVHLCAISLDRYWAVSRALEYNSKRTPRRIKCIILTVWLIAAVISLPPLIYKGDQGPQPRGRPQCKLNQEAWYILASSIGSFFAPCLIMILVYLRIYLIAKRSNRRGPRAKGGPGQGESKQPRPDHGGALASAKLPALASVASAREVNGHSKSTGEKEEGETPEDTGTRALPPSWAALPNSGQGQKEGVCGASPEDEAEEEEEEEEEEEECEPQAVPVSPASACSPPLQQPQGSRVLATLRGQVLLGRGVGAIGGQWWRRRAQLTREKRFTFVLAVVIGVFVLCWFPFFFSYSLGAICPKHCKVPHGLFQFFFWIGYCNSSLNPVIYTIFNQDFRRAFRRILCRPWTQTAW
Method in brief: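 Recombinant human α2B receptor membranes incubated with compounds in 50 mM Tris-HCl pH 7.4, 5 mM MgCl2, 1 mM CaCl2, 0.2% BSA, 1% DMSO vehicle. Non-specific binding defined with 10 μM rauwolscine. Values are percent inhibition of specific binding or estimated Ki.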

[2] = molecular target: T2, Human adrenergic α2A receptor (Homo sapiens, UniProt P08913); assay: Radioligand binding, adrenergic α2A (Protocol Group B); details: Protocol Group B; for inhibition at 0.1 µM / Percentage inhibition of ligand binding, Adrenergic α2A (0.1 μM): 0.1 μM compound; for inhibition at 0.1 µM: read-out: Percentage inhibition of ligand binding, Adrenergic α2A (0.1 μM); for inhibition at 0.3 µM / Percentage inhibition of ligand binding, Adrenergic α2A (0.3 μM): 0.3 μM compound; for inhibition at 0.3 µM: read-out: Percentage inhibition of ligand binding, Adrenergic α2A (0.3 μM)
T2 sequence (P08913 1-465): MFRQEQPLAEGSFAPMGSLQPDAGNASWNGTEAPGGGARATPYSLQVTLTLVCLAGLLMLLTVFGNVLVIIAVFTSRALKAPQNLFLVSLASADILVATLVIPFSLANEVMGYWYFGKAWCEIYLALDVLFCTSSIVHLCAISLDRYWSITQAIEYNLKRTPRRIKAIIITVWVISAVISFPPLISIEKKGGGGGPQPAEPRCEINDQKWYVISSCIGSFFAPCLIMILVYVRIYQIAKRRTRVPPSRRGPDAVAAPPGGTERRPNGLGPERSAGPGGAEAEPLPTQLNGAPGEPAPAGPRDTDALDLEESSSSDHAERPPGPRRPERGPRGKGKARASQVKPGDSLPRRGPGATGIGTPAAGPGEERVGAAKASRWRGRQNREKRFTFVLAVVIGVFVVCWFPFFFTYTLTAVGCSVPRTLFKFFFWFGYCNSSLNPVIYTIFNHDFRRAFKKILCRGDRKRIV
Method in brief: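 Membranes from recombinant cells expressing the receptor, in 50 mM Tris-HCl pH 7.4 with 5 mM MgCl2, 1 mM CaCl2, 0.2% BSA; compounds incubated with 2 nM [^3H]MK-912 for 60 min at 25° C. Nonspecific binding defined by 10 μM rauwolscine; filtration, counting; percent inhibition of specific binding, or estimated Ki.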

[3] = molecular target: T3, Human adrenergic α1B receptor (Homo sapiens, UniProt P35368); assay: Radioligand binding, adrenergic α1B (Protocol Group B); details: Protocol Group B; for inhibition at 0.1 µM / Percentage inhibition of ligand binding, Adrenergic α1B (0.1 μM): 0.1 μM compound; for inhibition at 0.1 µM: read-out: Percentage inhibition of ligand binding, Adrenergic α1B (0.1 μM); for inhibition at 0.3 µM / Percentage inhibition of ligand binding, Adrenergic α1B (0.3 μM): 0.3 μM compound; for inhibition at 0.3 µM: read-out: Percentage inhibition of ligand binding, Adrenergic α1B (0.3 μM)
T3 sequence (P35368 1-520): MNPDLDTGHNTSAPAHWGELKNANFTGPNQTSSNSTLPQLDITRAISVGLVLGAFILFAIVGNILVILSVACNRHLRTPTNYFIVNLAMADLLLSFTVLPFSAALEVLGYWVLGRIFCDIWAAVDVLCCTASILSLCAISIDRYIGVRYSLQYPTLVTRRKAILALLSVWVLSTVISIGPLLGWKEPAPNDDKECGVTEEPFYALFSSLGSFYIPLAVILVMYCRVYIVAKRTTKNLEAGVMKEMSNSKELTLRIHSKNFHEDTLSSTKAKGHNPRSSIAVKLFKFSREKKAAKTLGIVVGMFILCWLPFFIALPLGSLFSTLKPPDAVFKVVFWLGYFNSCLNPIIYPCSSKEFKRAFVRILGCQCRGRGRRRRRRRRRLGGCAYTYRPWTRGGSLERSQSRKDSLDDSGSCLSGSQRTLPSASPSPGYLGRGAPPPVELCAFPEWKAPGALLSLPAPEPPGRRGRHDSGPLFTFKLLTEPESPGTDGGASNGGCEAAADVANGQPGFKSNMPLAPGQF
Method in brief: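 Recombinant human α1B membranes incubated with test compound and 0.3 nM [3H]prazosin, 60 min at 25 °C, in 50 mM Tris-HCl pH 7.4, 10 mM MgCl2, 1 mM EDTA; nonspecific binding with 10 μM prazosin. Filter-bound radioactivity counted; values are % inhibition of specific binding or estimated Ki.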

Row | inhibition at 0.01 µM [1] | inhibition at 0.03 µM [1] | inhibition at 0.1 µM [1] | inhibition at 0.1 µM [2] | inhibition at 0.3 µM [2] | inhibition at 0.1 µM [3] | inhibition at 0.3 µM [3] | Percentage inhibition of ligand binding, Adrenergic α2B (10 nM) [1] | Percentage inhibition of ligand binding, Adrenergic α2B (30 nM) [1] | Percentage inhibition of ligand binding, Adrenergic α2B (0.1 μM) [1] | Percentage inhibition of ligand binding, Adrenergic α2A (0.1 μM) [2] | Percentage inhibition of ligand binding, Adrenergic α2A (0.3 μM) [2] | Percentage inhibition of ligand binding, Adrenergic α1B (0.1 μM) [3] | Percentage inhibition of ligand binding, Adrenergic α1B (0.3 μM) [3] | Compound
1 | 4% | -12% | -13% | 10% | 15% | 10% | 11% | – | – | – | – | – | – | – | CN1CCc2c(c3c(Cl)ccc(Cl)c3n2CC(O)c2cccnc2)C1 (stereo not shown) [Compound No. 17, 2-(6,9-dichloro-2-methyl-3,4-dihydro-1H-pyrido[4,3-b]indol-5 (2H)-yl)-1-(pyridin-3-yl)ethanol]
2 | 81% | 99% | 101% | 71% | 87% | 74% | 90% | – | – | – | – | – | – | – | Cc1ccc2c(c1)c1c(n2CC(O)c2ccncc2F)CCN2CCCC12 (stereo not shown) [compound 14, 1-(3-fluoropyridin-4-yl)-2-(10-methyl-2,3,5,6-tetrahydro-1H-indolizino[7,8-b]indol-7 (11cH)-yl)ethanol]
3 | – | – | – | – | – | – | – | 54% | 81% | 95% | 12% | 38% | 20% | 51% | OC(Cn1c2c(c3cc(F)ccc31)C1CCCN1CC2)c1ccncc1 (stereo not shown) [compound 18, 2-(10-fluoro-2,3,5,6-tetrahydro-1H-indolizino[7,8-b]indol-7 (11cH)-yl)-1-(pyridin-4-yl)ethanol]
4 | – | – | – | – | – | – | – | 81% | 95% | 100% | 59% | 79% | 77% | 91% | Cc1cc(C)c2c(c1)c1c(n2CC(C)(O)c2ccncc2)CCN2CCCC12 (stereo not shown) [compound 19, 1-(8,10-dimethyl-2,3,5,6-tetrahydro-1H-indolizino[7,8-b]indol-7(11cH)-yl)-2-(pyridin-4-yl)propan-2-ol]
5 | 6% | 35% | 54% | 12% | 23% | 10% | 15% | – | – | – | – | – | – | – | CN1CCc2c(c3cccc(Cl)c3n2CC(O)c2cccnc2)C1 (stereo not shown) [compound 20, 2-(6-chloro-2-methyl-3,4-dihydro-1H-pyrido[4,3-b]indol-5-(2H)-yl)-1-(pyridin-3-yl)ethanol]
6 | 85% | 96% | 96% | 78% | 89% | 84% | 95% | – | – | – | – | – | – | – | Cc1cc2c3c(n(CC(O)c4ccncc4)c2cc1Cl)CCN1CCCC31 (stereo not shown) [compound 21, 2-(8-chloro-9-methyl-1,2,3,4,5,10c-hexahydro-3a, 6-diaza-cyclopenta[c]fluoren-6-yl)-1-pyridin-4-yl-ethanol]
7 | 30% | 61% | 72% | 7% | 15% | 11% | 30% | – | – | – | – | – | – | – | Cc1ccc2c(c1)c1c(n2CC(O)c2cc[n+]([O-])cc2)CCN2CCCC12 (stereo not shown) [compound 22, 4-(1-hydroxy-2-(10-methyl-2,3,5,6-tetrahydro-1H-indolizino[7,8-b]indol-7 (11cH)-yl)ethyl)pyridine 1-oxide]
8 | -25% | 0% | 29% | -15% | 4% | -3% | 15% | – | – | – | – | – | – | – | Cc1ccc2c(c1)c1c(n2CC(O)c2cccnc2)C(O)CN(C)C1 (stereo not shown) [compound 24, 5-(2-Hydroxy-2-pyridin-3-yl-ethyl)-2,8-dimethyl-2,3,4,5-tetrahydro-1H-pyrido[4,3-b]indol-4-ol]
9 | 31% | 66% | 80% | 20% | 49% | 15% | 46% | – | – | – | – | – | – | – | OCc1ccc2c(c1)c1c(n2CC(O)c2ccncc2)CCN2CCCC12 (stereo not shown) [compound 29]
10 | 13% | 8% | 12% | -18% | -5% | 0% | 17% | – | – | – | – | – | – | – | Cc1ccc2c(c1)c1c(n2CC(O)c2cccnc2)C(F)(F)CN(C)C1 (stereo not shown) [compound 30, 2-(4,4-difluoro-2,8-dimethyl-3,4-dihydro-1H-pyrido[4,3-b]indol-5(2H)-yl)-1-(pyridin-3-yl)ethanol]
11 | – | – | 69% | – | – | -1% | 18% | 14% | 34% | – | 5% | 31% | – | – | Cc1ccc2c(c1)c1c(n2CC(C)(O)c2cnc3ccccc3c2)CCN(C)C1 (stereo not shown) [compound 32]
12 | 6% | 8% | 38% | -10% | 4% | -12% | -1% | – | – | – | – | – | – | – | Cc1ccc2c(c1)c1c(n2CC(C)(O)c2ccc(C(=O)N(C)CC3CC3)nc2)CCN(C)C1 (stereo not shown) [compound 33, N-(cyclopropylmethyl)-5-(1-(2,8-dimethyl-3,4-dihydro-1H-pyrido[4,3-b]indol-5(2H)-yl)-2-hydroxypropan-2-yl)-N-methylpicolinamide]
13 | – | 35% | – | – | – | 17% | – | 11% | – | 64% | 17% | 19% | – | 34% | Cc1ccc2c(c1)c1c(n2CC(C)(O)c2ccc(N(C)C)nc2)CCN(C)C1 (stereo not shown) [compound 39, 1-(2,8-dimethyl-3,4-dihydro-1H-pyrido[4,3-b]indol-5(2H)-yl)-2-(6-(dimethylamino)pyridin-3-yl)propan-2-ol]
